Results on four compounds are retold here after patent publication EP2356213B1, “STEM CELL AGGREGATE SUSPENSION COMPOSITIONS AND METHODS FOR DIFFERENTIATION THEREOF” (VIACYTE, INC., priority 2008, dated 2010).

Data set [1] addresses T1, ErbB2 (Homo sapiens, UniProt P04626).
T1 construct: endogenous in cells; host or cells: human embryonic stem cells (hESCs) growing in DC-HAIF
Description: Western blotting of ErbB2 autophosphorylation in starved/heregulin pulsed hESCs. The data set is classed as cell-based. Conditions: starved/heregulin (HRG) pulsed hESCs in DC-HAIF. The text has this:
(§1) Colony and cell-counting assays confirmed that LongR3-IGFl and HRG played the major roles in self-renewal and proliferation in the context of one of the embodiments of the present invention (Fig. 6D, 6E). Phosphorylation of IGF1R, IR, […], ErbB2, and ErbB3 was also observed in both steady-state DC-HAIF cultures, and in starved cultures that were pulsed with DC-HAIF (Fig. 6F).
A general note: In western blotting, separated proteins are transferred to a membrane and probed.

The test system of data set [2] is BG02 hESCs. The data set can be described thus: Proliferation of hESCs in conditioned medium with AG825. In kind it is cell-based, human.
Source text: as §1

The subject of data set [3] is R1 mouse ES cells. The data set can be described thus: Effect of ErbB1/ErbB2 inhibitors on proliferation of mouse ES cells (alkaline phosphatase staining, 8 days). In kind it is cell-based. The protocol:
AG1478 and AG879 were used to examine the role of HRG/ErbB signaling in mouse ES cells. R1 mouse ES cells were maintained in standard conditions in DMEM, 10% FBS, 10% KSR, 0.5 U/mL penicillin, 0.5 U/mL streptomycin, 1xNEAA, 1 mM sodium pyruvate, 1000 U/mL LIF (ESGRO), 0.1 mM β-ME, and were passaged with 0.5% trypsin/EDTA. 2x10^5 cells/well were plated in 6 well trays on MATRIGEL™ diluted at 1:1000. The day after plating, DMSO (carrier control), 1-50 µM AG1478, or 1-50 µM AG879 was added with fresh medium. The cells were cultured an additional 8 days, with daily media changes. The cultures were then fixed and stained for alkaline phosphatase activity.

Data set [4] has as its system BGOlv cells. Description: Effect of ErbB tyrosine kinase inhibitors on proliferation of BG01v hESCs (alkaline phosphatase staining after 5 days). In kind it is cell-based. The protocol: The EGF domain family of ligands bind to the ErbB family of receptor tyrosine kinases. To examine the effect of known inhibitors of ErbB tyrosine kinases in hESCs, BGOlv cells were plated in 6 well trays on MATRIGEL™ diluted at 1:1000, in defined culture medium (DC) containing 100 ng/mL LongR3-IGFl, 8 ng/mL FGF2 and 1 ng/mL Activin A. On the next day, DMSO (carrier control), 50 nM-20 µM AG1478 (an ErbB1 inhibitor), or 100 nM-20 µM AG879 (an ErbB2 inhibitor) was added with fresh medium. The cells were cultured for an additional 5 days, with daily media changes. The cultures were then fixed and stained for alkaline phosphatase activity.

The subject of data set [5] is pancreatic epithelial and endocrine type cells. The data set can be described thus: Re-aggregation of dissociated stage 4 or stage 5 adherent cultures with ROCK inhibitor. The data set is classed as cell-based, human. Conditions: 10µM. The protocol: Adherent cultures at either stage 4 (about d10 - d14 into the differentiation protocol; pancreatic epithelial and endocrine type cells) or stage 5 (about day 16 to day 30 into the differentiation protocol; endocrine precursor and endocrine cells) were similarly dissociated into single cells, counted, and pelleted. The cell pellet was then resuspended in DMEM CMRL supplemented Pen/Strep and Glutamax, and IX B27-supplement and DNase (50-100 µg/ml, Roche Diagnostics) and 0-2% FBS. […] Cells were equally distributed into 6-well plates and placed on a rotating platform at 100 rpm to 140 rpm form 4 hours to overnight substantially as described above.

Data set [6] deals with BG02 cells. The data set can be described thus: Suspension cultures with and without an apoptosis inhibitor, cell counting. The data set is classed as cell-based, human. The protocol: To attenuate the loss of cells after initial passaging in suspension, an inhibitor of apoptosis was added to the medium. Cells were passaged as in Example 12, except that Y-27632, an inhibitor of p160-Rho-associated coiled-coil kinase (ROCK), was added to the medium.
Suspension aggregates of BG02 cells were formed by seeding 2x10^6 single cells in 6-well dishes in 3 mL DC-HAIF medium, at 100 rpm on a rotating platform in an incubator (Table 2, Experiment A). 10 µM Y27632 ROCK inhibitor was added to test wells for the course of the experiment and the cultures observed daily and counted after 24 hours (day 1) and after 4 or 5 days. […] Cell counting confirmed that more viable cells were present in the presence of inhibitor (Table 2, Experiment A). This difference in cell number persisted throughout the course of the culture period, with more cells also observed on day 4, compared to cultures without inhibitor. As with previous suspension culture experiments, cells exposed to Y27632 could also be serially passaged, and maintained in an undifferentiated state (not shown).
As previous experiments had shown that growth rates of cells in suspension and adherent culture were similar after the initial 24 hours, an experiment was performed where Y27632 was removed after this initial period (Table 2, Experiment B). […] 1.4x10^7 (+Y27632) and 1.8x107 (+/-Y27632) viable cells were generated when inhibitor was present compared to 3.9x10^6 cells in untreated cultures. This analysis confirmed that Y27632 had the largest impact during the first 24 hours of suspension hESC culture.
Because of the enhanced survival and aggregation observed in the presence of Y27632, an experiment was performed to examine if it was possible to reduce the number of cells used to seed suspension cultures (Table 2, Experiment C). […] To determine if addition of a ROCK inhibitor would allow cell seeding at lower densities, a range of cell concentrations (from about 2x10^6 total cells down to about 1x10^5 total cells was used to seed suspension cultures in 6-well trays cells in 3 mL DC-HAIF. 10 µM Y27632 was added to all conditions, and the cell number and viability assessed on day 5. Successful aggregation and expansion was observed even at low seeding densities. An approximately 13 fold expansion of viable cells was observed even cultures that were only seeded with 1x10^5 cells. Inhibition of ROCK with Y27632 therefore facilitated initial survival of hESCs at much lower densities in this suspension system. Table 2 - Suspension Cultures with and without an Apoptosis Inhibitor

For data set [7], the system named is ES cells. Description: Suspension cultures in various media, cell counting. The data set is classed as cell-based. Conditions: added to HAIF, HAI, HI. The protocol:
To determine if suspensions of ES cells could be cultured in the absence of FGF2 and/or Activin A, ES cells were cultured in a variety of media, with and without these factors. […] In addition, the cells in each media were successfully passaged with no morphological signs of differentiation. Table 3 - Suspension Cultures in Various Media

Where [8] appears, read: Expt. A, seeding 2x10^6, p0, day 1.
Setting [9] is: Expt. A, seeding 2x10^6, p0, day 4.
Where [10] appears, read: Expt. A, seeding 2x10^6, p1, day 4.
[11] abbreviates: Expt. B, seeding 2x10^6, p0, day 1.
Where [12] appears, read: Expt. B, seeding 2x10^6, p0, day 5, +/-Y27632 = inhibitor removed after 24 hours, listed as +/-Y27632.
[13] abbreviates: Expt. B, seeding 2x10^6, p0, day 5, +/-Y27632 = inhibitor removed after 24 hours, listed as +Y27632.
[14] abbreviates: Expt. C, seeding 1x10^6, p0, day 1.
The mark [15] stands for this setting: Expt. C, seeding 1x10^6, p0, day 5.
Setting [16] is: Expt. C, seeding 2x10^6, p0, day 1.
Setting [17] is: Expt. C, seeding 2x10^6, p0, day 5.
Setting [18] is: Expt. C, seeding 2.5x10^5, p0, day 1.
Where [19] appears, read: Expt. C, seeding 2.5x10^5, p0, day 5.
Where [20] appears, read: Expt. C, seeding 5x10^5, p0, day 1.
Where [21] appears, read: Expt. C, seeding 5x10^5, p0, day 5.
[22] abbreviates: Expt. C, seeding 10^5, p0, day 1.
Where [23] appears, read: Expt. C, seeding 10^5, p0, day 5.

Entries after “also recorded” stand apart in the source; their conditions may differ.

T1 sequence (P04626 23-1255): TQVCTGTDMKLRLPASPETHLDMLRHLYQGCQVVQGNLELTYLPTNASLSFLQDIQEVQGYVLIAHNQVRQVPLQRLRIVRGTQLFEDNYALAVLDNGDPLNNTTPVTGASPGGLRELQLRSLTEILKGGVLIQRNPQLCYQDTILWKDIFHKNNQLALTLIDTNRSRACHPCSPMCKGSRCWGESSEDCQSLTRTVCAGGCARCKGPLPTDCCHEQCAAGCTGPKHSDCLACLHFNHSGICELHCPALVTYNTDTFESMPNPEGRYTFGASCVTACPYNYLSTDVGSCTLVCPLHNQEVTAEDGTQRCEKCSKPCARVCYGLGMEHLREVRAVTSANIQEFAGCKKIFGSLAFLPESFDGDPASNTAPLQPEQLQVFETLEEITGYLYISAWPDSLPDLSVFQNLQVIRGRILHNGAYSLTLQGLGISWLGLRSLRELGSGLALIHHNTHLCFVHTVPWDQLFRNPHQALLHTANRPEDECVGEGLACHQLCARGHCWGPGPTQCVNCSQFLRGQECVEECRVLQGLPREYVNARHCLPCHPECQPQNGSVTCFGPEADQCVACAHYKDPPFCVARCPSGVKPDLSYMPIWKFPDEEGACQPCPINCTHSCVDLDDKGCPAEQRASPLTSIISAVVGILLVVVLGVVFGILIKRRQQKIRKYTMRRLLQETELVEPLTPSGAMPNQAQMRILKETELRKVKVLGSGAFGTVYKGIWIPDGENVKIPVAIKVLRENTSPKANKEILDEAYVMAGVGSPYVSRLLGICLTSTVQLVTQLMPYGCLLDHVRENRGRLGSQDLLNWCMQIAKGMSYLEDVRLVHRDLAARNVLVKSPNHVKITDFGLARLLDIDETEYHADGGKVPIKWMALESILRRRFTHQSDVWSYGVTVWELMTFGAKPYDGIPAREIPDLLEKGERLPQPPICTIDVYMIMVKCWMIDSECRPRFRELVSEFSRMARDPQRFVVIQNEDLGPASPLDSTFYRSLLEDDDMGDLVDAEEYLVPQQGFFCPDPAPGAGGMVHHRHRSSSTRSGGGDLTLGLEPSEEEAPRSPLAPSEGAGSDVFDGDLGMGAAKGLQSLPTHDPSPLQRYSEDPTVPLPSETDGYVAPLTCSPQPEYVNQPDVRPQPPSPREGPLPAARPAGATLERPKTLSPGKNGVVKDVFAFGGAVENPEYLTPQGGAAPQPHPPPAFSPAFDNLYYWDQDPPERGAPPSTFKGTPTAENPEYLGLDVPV

Regarding `COc1cc(C=C(C#N)C(N)=O)cc(CSc2nc3ccccc3s2)c1O` [AG825, tyrphostin AG825], in data set [1], the “autophosphorylation of ErbB2 at tyrosine-1248” value is on record as “inhibited autophosphorylation of ErbB2 at tyrosine-1248; also recorded: inhibits ErbB2 Y1248 phosphorylation”. In addition, in data set [2] (50 µM, conditioned medium (CM)), the proliferation result is “significantly inhibited proliferation”. Further, in data set [2] (in presence of AG825), the “time viable hESCs could be maintained” value is listed as > 5 days.
In the case of `CC(C)(C)c1cc(/C=C(\C#N)C(N)=S)cc(C(C)(C)C)c1O` [AG879], the proliferation entry in data set [3] (at 20 µM) is listed as “may have slowed proliferation”. The cell growth entry was “substantially inhibited cell growth” in data set [3] (at 50 µM) and “substantially inhibited cell growth; also recorded: substantially slowed cell growth” in data set [4] (at 5 µM, 5 days). Also, the figures for the differentiation entry in data set [3] (mESCs grown in AG879) and in data set [4] (cultures grown in AG879) were “did not appear to differentiate” and “inhibit proliferation without inducing differentiation”, respectively. Further, the “concentration required to inhibit proliferation, mESCs relative to BG01v cells” value in data set [3] (mESCs vs BG01v cells grown in defined conditions) is recorded as ~10 x. In addition, in data set [4] (at 20 µM), the cell death entry is recorded as “caused cell death”.
For `COc1cc2ncnc(Nc3cccc(Cl)c3)c2cc1OC` [AG1478], the cell proliferation entry in data set [3] (1-50 µM, 8 days, 10% FBS, 10% KSR, LIF) was “no apparent affect on cell proliferation; also recorded: did not overtly inhibit proliferation”; in data set [4] (50 nM-20 µM, 5 days, DC medium), “neither DMSO nor AG1478 (50 nM-20 µM) had an apparent affect on cell proliferation; also recorded: did not appear to affect proliferation”.
On to `C[C@@H](N)[C@H]1CC[C@H](C(=O)Nc2ccncc2)CC1` [Y27632], for which, in data set [5], the cell survival entry is reported as “supported cell survival”. Further, in data set [6] (10 µM Y27632, seeded with 1x10^5 cells, day 5), the “expansion of viable cells” value was “approximately 13 fold”. Also, the “initial aggregation in suspension culture” value in data set [6] (10 µM, compared to medium without inhibitor) is listed as “much larger aggregates were formed”. In addition, the “differentiation state by RT-PCR” value in data set [6] (BG02 suspension culture in the presence of Y27632) is “remained undifferentiated”. The “cell number when the aggregates were split again” value in data set [6] (Expt. A, p1, vs without inhibitor) is “almost twice as many cells were observed”. In addition, the “Cell counts: total” value in data set [6] (setting [8]) is recorded as 1.6x10^6; in data set [6] (setting [9]) it was 7.8x10^6; in data set [6] (setting [10]) it was 4.6x10^6; in data set [6] (setting [11]) it was 1.9x10^6; in data set [6] (setting [12]), 1.9x10^7; in data set [6] (setting [13]) it was 1.5x10^7. Also, the “Cell counts: total” value was 8.7x10^5 in data set [6] (setting [14]); 8.6x10^6 in data set [6] (setting [15]); 1.9x10^6 in data set [6] (setting [16]); 1.4x10^7 in data set [6] (setting [17]); 2.6x10^5 in data set [6] (setting [18]); 2.7x10^6 in data set [6] (setting [19]). Besides, the “Cell counts: total” value in data set [6] (setting [20]) is reported as 4.6x10^5; in data set [6] (setting [21]), 5.7x10^6; in data set [6] (setting [22]), 6.8x10^4; in data set [6] (setting [23]) it was 1.4x10^6. Besides, the “Cell counts: viable” value in data set [6] (setting [8]) is recorded as 1.2x10^6; in data set [6] (setting [9]), 7.1x10^6; in data set [6] (setting [10]) it was 4.2x10^6; in data set [6] (setting [11]) it was 1.4x10^6; in data set [6] (setting [12]), 1.8x10^7; in data set [6] (setting [13]), 1.4x10^7. Moreover, the “Cell counts: viable” value is listed as 6.6x10^5 in data set [6] (setting [14]); 7.8x10^6 in data set [6] (setting [15]); 1.6x10^6 in data set [6] (setting [16]); 1.2x10^7 in data set [6] (setting [17]); 2.3x10^5 in data set [6] (setting [18]); 2.5x10^6 in data set [6] (setting [19]). Also, the “Cell counts: viable” value in data set [6] (setting [20]) is 3.5x10^5; in data set [6] (setting [21]) it was 5.3x10^6; in data set [6] (setting [22]), 5.4x10^4; in data set [6] (setting [23]), 1.3x10^6. Further, the “Cell counts: viable, %” value came to 74% in data set [6] (setting [8]); 91% in data set [6] (setting [9]); 91% in data set [6] (setting [10]); 73% in data set [6] (setting [11]); 96% in data set [6] (setting [12]); 92% in data set [6] (setting [13]). Also, the “Cell counts: viable, %” value is 76% in data set [6] (setting [14]); 91% in data set [6] (setting [15]); 84% in data set [6] (setting [16]); 90% in data set [6] (setting [17]); 91% in data set [6] (setting [18]); 91% in data set [6] (setting [19]). The “Cell counts: viable, %” value was found to be 75% in data set [6] (setting [20]), 93% in data set [6] (setting [21]), 79% in data set [6] (setting [22]) and 92% in data set [6] (setting [23]). For the same compound, the “yield of cells generated by day 5” value in data set [7] was “increased the yield of cells generated by day 5 in all conditions”.
